Laboratory results taken from US7456154B2 (priority 2001, dated 2008).

Assays:
[1] = tested on: MG patients; assay: Phase Ib clinical trial of oral hEN101 in MG patients (QMG score); assay type: in vivo, human; details: for Decrease in mean total QMG score from baseline: baseline mean total score 13.2
Procedure: Protocol for Phase Ib Clinical Trial of MG patients using hEN101: Patients were hospitalized and pyridostigmine was discontinued for 12-18 hours before EN101 testing. Assessment of MG status was performed first at entry, then after pyridostigmine stoppage, and regularly after EN101 treatment using a Quantitative MG (QMG) score. Escalating oral doses of EN101 (10-150 μg/kg) were given in the first day (day 1) followed by a daily dose of 500 μg/kg for 3 days (days 2-4). Days 5 and 6 were washout period without pyridostigmine, and restitution of pyridostigmine occurred when it became necessary. Patients were monitored for 1 month thereafter, with three visits as out-patients.
The following parameters were used as inclusion criteria: • Class II and above, according to MGFA classification (myasthenia gravis standard clinical classification of the disease severity score); • Age 18-70; • Seropositive for AChR antibodies; • Patients under pyridostigmine (180 mg/day) treatment without concomitant immunosuppressants; • Stable for 3 months, with no PE (plasma exchange) for 6 months; • No other major or active diseases.
Evaluation of the MG status of each patient was based on the following parameters: • (a) QMG scoring (maximum value of 9), based on the measurements of: • Fatigue in each limb (4); • Fatigue of the neck (1); • Swallowing rate (1); • Power in the hands (2); • Respirometry (1). • These measurements were taken daily, 4 times per day, and averaged for days 2-6. • (b) Patient's subjective report; • (c) Vital signs, clinical chemistry, hematology, urinalysis, ECG and physical examination, recorded daily.
16 patients with stable generalized MG requiring constant AChE inhibitors (pyridostigmine) for daily function were recruited, after approval by human ethics committees of the respective hospitals involved in the present trial (Hadassah Medical Center, Jerusalem, Israel and Greater Manchester Neurosciences Center, Hope Hospital, Salford, England).

[2] = tested on: AChE-R mRNA; assay: In situ hybridization of AChE-R mRNA in monkey spinal cord neurons; assay type: in vivo, Cynomolgus monkey
Procedure: In situ hybridization: Tissues were fixed in 4% paraformaldehyde and cut into 7 μm paraffin embedded sections. Spinal cord sections were deparaffinized, rehydrated using serial ethanol dilutions and permeabilized with proteinase K (10 μg/ml at room temp.). Slides were exposed to 5′ biotinylated, fully 2′-oxymethylated AChE-R or AChE-S-specific 50-mer cRNA probes complementary to human ACHE pseudo-intron 4 or exon 6, respectively [Grisaru et al. (2001) id ibid.]. Hybridization was performed overnight at 52° C. in hybridization mixture containing 10 μg/ml probe, 50 μg/ml yeast tRNA, 50 μg/ml heparin and 50% formamide in 375 mM Na chloride, 37.5 mM Na citrate, pH 4.5. For monkey sections, the probe was constructed according to the human AChE-R sequence; for rat sections, according to the mouse sequence. Slides were washed to remove non-hybridized probe, blocked with 1% skim milk containing 0.01% Tween-20 and 2 mM levamisole, an alkaline phosphatase inhibitor used to suppress non-specific staining and incubate with streptavidin-alkaline phosphatase (Amersham Pharmacia). Fast Red™ substrate (Roche Diagnostics) was used for detection. DAPI staining (Sigma Chemical Co., St. Louis, Mo., USA) served to visualize nuclei. Microscope images were analyzed with Image Pro Plus 4.0 (Media Cybernetics) software.
This experiment was conducted with six (3 males and 3 females) purpose-bred 15 month-old (young adult) Cynomolgus monkeys, divided in three groups (1, 2 and 3) of one male and one female each. Groups 1 and 2 received hEN101 daily by o.g. for a period of 7 days, at a concentration of 0.15 and 0.50 μg/g/day, respectively. Group 3 received daily i.v. injections of hEN101 for a period of 7 days at a dosage of 0.50 μg/g/day.
Paraffin-embedded 7 μm spinal cord sections were examined by in situ hybridization for the levels of AChE-R and AChE-S mRNA.
AChE-R-positive sections from monkey spinal cords were analyzed for the relation between cell body diameter and percentage of AChE-R positive cells (FIG. 15). Cells were divided into three categories according to their body diameter, and the percentage of AChE-R-positive cells from each category was evaluated. […] Either i.v. or p.o. administration of the higher EN101 concentration (500 μg/kg/day) reduced the percentage of AChE-R-positive neurons, compared to the lower concentration (p<0.05. Student's t test). […] We have yet to discover the functional correlate of cell size that determines the efficacy of antisense suppression of AChE-R expression.

[3] = tested on: AChE; assay: Plasma cholinesterase activities in monkeys (Ellman assay, acetylthiocholine hydrolysis); assay type: in vivo, Cynomolgus monkey
Procedure: In the 12 hr following the second day administration of hEN101, monkey plasma samples were collected and stored. Plasma cholinesterase activities were measured by spectrophotometry assessing the rate of hydrolysis of acetylthiocholine (measured by the Ellman assay, which quantifies the hydrolysis of acetylthiocholine) [Ellman, G. L., et al. (1961). Biochem. Pharmacol. 7, 88-95], in the absence or presence of iso-OMPA (a selective butyrylcholinesterase, BChE, inhibitor). […] When measured in the presence of 1×10^−5M iso-OMPA, AChE activity increased within the 5 hr post-injection.

[4] = tested on: healthy rats; assay: Electromyography: CMAP ratio in naive (healthy) rats; assay type: in vivo, rat; details: for CMAP ratio (5th vs. 1st amplitude): naive rats, 50 μg/Kg, average ± SEM
Procedure: Electromyography: Rats were anesthetized by i.p. injection of […] pentobarbital, immobilized, and subjected to repetitive sciatic nerve stimulation, using a pair of concentric needle electrodes at 3 Hz. Baseline compound muscle action potential (CMAP) was recorded by a concentric needle electrode placed in the gastrocnemius muscle, following a train of repetitive nerve stimulations at supramaximal intensity. Decrease (percent) in the amplitude of the fifth vs. the first muscle action potential was determined in two sets of repetitive stimulations for each animal. A reduction of 10% or more was considered indicative of neuromuscular transmission dysfunction.
Drug administration: Intravenous injections and blood sampling for anti-AChR antibodies testing were via the right jugular vein under anesthesia. For oral administration, a special needle for oral gavage feeding was used, which is curved with a ball end (Stoelting, Wood Dale Ill.). Mestinon® was administered in a dose of 1 mg/kg/day, and purchased from Hoffmann La-Roche. Basel, Switzerland.

5′-CTGCCACGTTCTCCTGCACC-3′ [hEN101]
Decrease in mean total QMG score from baseline ([1]; day 2): 3.0
Decrease in mean total QMG score from baseline ([1]; day 3): 4.8
Decrease in mean total QMG score from baseline ([1]; day 4): 5.7
Decrease in mean total QMG score from baseline ([1]; day 5): 5.5
Decrease in mean total QMG score from baseline ([1]; day 6): 6.0
Vital signs, chemical chemistry, hematology, urinalysis, ECG and physical examination ([1]; experimental period and month following discharge): remained unchanged
Cholinergic side effects ([1]; human, in vivo): not reported
Duration of improved scores following the final dose ([1]; human, in vivo): up to 72 hours
Serious adverse effects ([1]; human, in vivo): No serious adverse effects were observed
Patients with clear symptomatic improvement ([1]; oral, 10-150 μg/kg day 1, 500 μg/kg days 2-4): 15 out of 16
Percent of small AChE-R-positive cells (<70 μm diameter) vs naive monkeys ([2]; 150 μg/kg/day): caused an increase
Effect on AChE-R labeling of larger neurons (>70 μm) ([2]; 150-500 μg/kg/day): not discernable effect
AChE-R mRNA in spinal cord ([2]; increasing daily dose from 0.15 (oral) to 0.50 (oral or i.v.) μg/g/day, i.v. more effective): significant reduction
Percentage of labeled small (23 to 40 μm) and medium-sized (40 to 70 μm) neurons ([2]; lower to higher oral dose (150 to 500 μg/kg/day), even further with i.v.): decreased significantly
Total plasma cholinesterase activity (largely serum BChE) ([3]; 12 hr following second day administration, without iso-OMPA): generally unchanged
Post-injection increase of plasma AChE activity ([3]; in presence of 1×10^−5M iso-OMPA, 500 μg/kg vs 150 μg/kg, more effective i.v.): effectively suppressed or attenuated

5′-CTGCGATATTTTCTTGTACC-3′ (chemistry not given here) [rEN101]
Effect on CMAP in healthy animals ([4]; i.v., doses 10-500 μg/Kg): did not affect CMAP
CMAP ratio (5th vs. 1st amplitude) ([4]; intravenous, 0 h): 1.00 ± 0.0
CMAP ratio (5th vs. 1st amplitude) ([4]; intravenous, 5 h): 1.00 ± 0.01
CMAP ratio (5th vs. 1st amplitude) ([4]; intravenous, 24 h): 1.02 ± 0.01
CMAP ratio (5th vs. 1st amplitude) ([4]; oral, 0 h): 1.01 ± 0.01
CMAP ratio (5th vs. 1st amplitude) ([4]; oral, 1 h): 1.0 ± 0.02
CMAP ratio (5th vs. 1st amplitude) ([4]; oral, 5 h): 1.03 ± 0.02
CMAP ratio (5th vs. 1st amplitude) ([4]; oral, 24 h): 1.01 ± 0.00
